Test results reported in patent US20240361338A1, “DIAGNOSIS AND TREATMENT OF ECTOPIC ENDOMETRIOSIS” (FERRING B.V., priority 2021, published 2024).

What was measured:
[1] = tested on: D2 mRNA expression in ectopic EMSCs; assay: Real Time PCR of D2 mRNA expression after quinagolide treatment; type: cell-based, human; conditions: ectopic lines, 48 h of 100 nM quinagolide, vs untreated
Text: FIG. 2: Effect of quinagolide on D2 expression in eutopic and ectopic EMSCs. A: Western blot analysis showing the presence of D2 in […] different passages, and in sorted SUSD2^+ E-MSCs. B: Real Time PCR analysis showing the relative quantification (RQ) of D2 mRNA expression by eutopic and ectopic EMSCs. Data are represented as mean±SD of three different eutopic or ectopic (ovarian and peritoneal) lines and normalized to GAPDH and to eutopic […]: Real Time PCR analysis showing D2 mRNA expression after 48 h of 100 nM quinagolide treatment (Q100) by eutopic and ectopic EMSCs. Data are represented as mean±SD of three different eutopic or ectopic (ovarian and peritoneal) lines and normalized to GAPDH and to untreated […] was performed: *=P<0.05 vs CTL. Trizol Reagent (Ambion) was used to isolate total RNA of different cell preparations, according to the manufacturer's protocol. RNA was then quantified spectrophotometrically using Nanodrop ND-1000. Quantitative real-time PCR was performed for gene expression analysis. Briefly, using the HighCapacity cDNA Reverse Transcription Kit (Applied Biosystems), first-strand cDNA was produced from 200 ng of total RNA. […] Fold change expression respect to control was calculated for all samples.

[2] = tested on: experimentally induced endometriosis; conditions: Akyol et al., 2016; cited from earlier work
ectopic EMSCs = assay: Annexin V apoptosis assay on E-MSCs; type: cell-based, human; conditions: different concentrations, after 24, 48 and 72 hours
Description: FIG. 3: Quinagolide effect on EMSCs apoptosis and proliferation. A: Quinagolide concentration-response curve on ectopic EMSCs in both apoptosis (N=1) and proliferation (N=2) assays. B: Effect of two selected quinagolide doses (10^−5 and 10^−7M) on HUVECs (N=1) and ectopic E-MSCs (N=3) apoptosis and proliferation assays (N=2). Data are represented as mean±SD of the indicated number of experiments and normalized to untreated cells (Control). Annexin V assays were performed using the Muse™ Annexin V & Dead Cell Kit (Millipore), according to the manufacturer's recommendations. Briefly, 20×10^3 cells were plated and after 24 h treated with different concentrations of quinagolide. After 24, 48 and 72 hours, cells were detached and resuspended in Muse™ Annexin V & Dead Cell Kit and the percentage of apoptotic cells (Annexin V+) was measured. Data are expressed as the mean±standard deviation (SD) of the media of absorbance of at least three different experiments and normalized to control.

For `CCCN1C[C@@H](NS(=O)(=O)N(CC)CC)C[C@@H]2Cc3c(O)cccc3C[C@H]21` [quinagolide, N,N-diethyl-N′-[(3S,4aS,10aR)-6-hydroxy-1-propyl-1,2,3,4,4a,5,10,10a-octahydrobenzo[g]quinolin-3-yl]sulfamide], the “D2 mRNA expression” value [1] is given as “reduced”, the “outcome in experimentally induced endometriosis rat model” value [2] is given as “successfully tested” and the “apoptosis of E-MSCs (Annexin V+)” value (ectopic EMSCs) is given as “did not increase apoptosis”.
